Source: article PMC11868595, “Safety, pharmacokinetics and efficacy of HA121-28 in patients with advanced solid tumors and RET fusion-positive non-small-cell lung cancer: a multicenter, open-label, single-arm phase 1/2 trial” (Signal Transduction and Targeted Therapy, 2025)

System: patients with RET fusion-positive NSCLC
Assay: Phase 2 trial: adverse events (CTCAE)
Format: in vivo, human
Text: The phase 2 trial was still ongoing. It was a single-arm, multicenter, open-label, nonrandomized study to assess the efficacy and safety of HA121-28 in RET-fusion-positive NSCLC.
Patients aged 18–75 years (inclusive) who had unresectable locally advanced or metastatic NSCLC through histologically or cytologically examination were enrolled. Patients were also required to have documented RET fusions centrally examined by next-generation sequencing in certified laboratories but without other oncogenic alterations. Had progression on at least one previous line of standard treatment but have no previous use of other anti-RET inhibitors. The complete lists of inclusion and exclusion criteria of phase 1 and phase 2 are provided in both protocols (in Supplement).
In phase 1 trial, during the dose-escalation part, patients first administered HA121-28 in a single ascending dose under the fasted state, then followed up for seven days. Then, patients received ascending doses of HA121-28 (q.d.) on a 21-day on and 7-day off treatment scheme for a 28-day cycle. For patients deemed beneficial from the treatment by investigators, treatment could remain until disease progression, or they discontinued from the study. In the dose-expansion part of phase 1, as well as phase 2, patients received HA121-28 (q.d.) at the selected doses on a 21-day on and 7-day off treatment scheme until disease progression, or they discontinued from the study.
Treatment-emergent adverse events (TEAEs) were documented during the entire study period. The predefined adverse event of special interest (AESI) was ≥ grade 3 prolonged QT interval. Tumor imaging was performed using contrast-enhanced computed tomography or magnetic resonance imaging at screening, Day 28 of the first cycle, then approximately every eight weeks till the end of the study for phase 1; in phase 2, imaging was scheduled at screening, and every eight weeks during the first 40 weeks, followed by every 12 weeks for the rest of the study period. RECIST 1.1 was used by the independent review committee or investigators for assessment of tumor response. After the original assessment, a repeated assessment was required around four weeks later to confirm a complete or partial response.
The primary endpoint of phase 2 was the independent review committee evaluated ORR using RECIST 1.1. The secondary endpoints included investigators assessed ORR; DCR, PFS, and DOR by the independent review committee and investigators; overall survival and TEAEs. Each TEAE was graded according to CTCAE version 5.0 and coded by MedDRA (version 24.0). The phase 2 trial is ongoing; not all endpoints are reported in this paper.

[1] = Phase 2 study, patient 3 with Grade 3 QTc prolongation
[2] = Phase 2 study, patient 4 with Grade 3 QTc prolongation
[3] = Phase 2 study, patient 5 with Grade 3 QTc prolongation
[4] = Phase 2 study, patient 7 with Grade 3 QTc prolongation
[5] = Phase 2 study, patient 8 with Grade 3 QTc prolongation

COc1cc2c(Nc3ccc(Br)cc3F)ncnc2cc1OCCCCN(C)C.Cl.Cl [HA121-28, N-(4-bromo-2-fluorophenyl)-7-(4-(dimethylamino)butoxy)-6-methoxy quinazolin-4-amine dihydrochloride]
14.6%: ≥ grade-3 prolonged QT interval with dose interruption (phase 2)
18.8%: grade ≥ 3 TEAE hypertension (phase 2) | patients with treatment-related SAE (phase 2)
9 (18.8) No. (%): Serious TRAE: Any (Phase 2, 450 mg (N=48))
2 (4.2) No. (%): Serious TEAE: Rash (Phase 2, 450 mg (N=48)) | Serious TRAE: Hypertension (Phase 2, 450 mg (N=48)) | Serious TRAE: Rash (Phase 2, 450 mg (N=48))
12.5%: grade ≥ 3 TEAE diarrhea (phase 2)
1 (2.1) No. (%): Serious TEAE: Pneumonia (Phase 2, 450 mg (N=48)) | Serious TEAE: Pneumonitis (Phase 2, 450 mg (N=48)) | Serious TEAE: Pulmonary embolism (Phase 2, 450 mg (N=48)) | Serious TEAE: Pyrexia (Phase 2, 450 mg (N=48)) | Serious TEAE: Respiratory failure (Phase 2, 450 mg (N=48)) | Serious TEAE: Septic shock (Phase 2, 450 mg (N=48)) | Serious TRAE: ALT increased (Phase 2, 450 mg (N=48)) | Serious TRAE: AST increased (Phase 2, 450 mg (N=48)) | Serious TRAE: Abdominal Pain (Phase 2, 450 mg (N=48)) | Serious TRAE: Dermatitis allergic (Phase 2, 450 mg (N=48)) | Serious TRAE: Diarrhea (Phase 2, 450 mg (N=48)) | Serious TRAE: Erythema multiforme (Phase 2, 450 mg (N=48)) | Serious TRAE: Pulmonary embolism (Phase 2, 450 mg (N=48))
62.5%: patients with grade ≥3 TRAEs (phase 2)
6.3%: ≥ grade-3 prolonged QT interval with dose reduction (phase 2)
31.3%: grade ≥ 3 TEAE prolonged QT interval (phase 2)
2: Grade of cardiac TEAE: cronary arteriosclerosis (Phase 2 study, patient 2 with Grade 3 QTc prolongation) | Grade of cardiac TEAE: ventricular extrasystole [1] | Grade of cardiac TEAE: Ejection fraction reduced [2] | Grade of cardiac TEAE: Left ventricular dysfunction [2] | Grade of cardiac TEAE: Ventricular wall movement diffusky diminshed [2] | Grade of cardiac TEAE: myocardial damage (Phase 2 study, patient 6 with Grade 3 QTc prolongation) | Grade of cardiac TEAE: Supraventricular extrasystoles [4] | Grade of cardiac TEAE: T wave abnormal [4] | Grade of cardiac TEAE: U wave abnormal [4]
39.6%: patients with at least one SAE (phase 2)
95.8%: patients with at least one TRAE (phase 2)
0 No. (%): Serious TEAE: Prolonged QT interval (Phase 2, 450 mg (N=48)) | Serious TEAE: Rectal hemorrhage (Phase 2, 450 mg (N=48)) | Serious TEAE: Seizure (Phase 2, 450 mg (N=48)) | Serious TEAE: Sudden cardiac arrest (Phase 2, 450 mg (N=48)) | Serious TEAE: Sudden death (Phase 2, 450 mg (N=48)) | Serious TEAE: Upper respiratory tract infection (Phase 2, 450 mg (N=48)) | Serious TEAE: Ventricular tachycardia (Phase 2, 450 mg (N=48)) | Serious TEAE: Vomiting (Phase 2, 450 mg (N=48)) | Serious TEAE: Weight loss (Phase 2, 450 mg (N=48)) | Serious TRAE: Abdominal distension (Phase 2, 450 mg (N=48)) | Serious TRAE: Acute cholecystitis (Phase 2, 450 mg (N=48)) | Serious TRAE: Acute pancreatitis (Phase 2, 450 mg (N=48)) | Serious TRAE: Anal abscess (Phase 2, 450 mg (N=48)) | Serious TRAE: Aortic intramural hematoma (Phase 2, 450 mg (N=48)) | Serious TRAE: Arrhythmia (Phase 2, 450 mg (N=48)) | Serious TRAE: Blood bilirubin increased (Phase 2, 450 mg (N=48)) | Serious TRAE: Blood creatinine increased (Phase 2, 450 mg (N=48)) | Serious TRAE: COVID-19 (Phase 2, 450 mg (N=48)) | Serious TRAE: Cardiac tamponade (Phase 2, 450 mg (N=48)) | Serious TRAE: Coronary artery atherosclerosis (Phase 2, 450 mg (N=48)) | Serious TRAE: Death (Phase 2, 450 mg (N=48)) | Serious TRAE: Drug eruption (Phase 2, 450 mg (N=48)) | Serious TRAE: Dyspnea (Phase 2, 450 mg (N=48)) | Serious TRAE: Embolism (Phase 2, 450 mg (N=48)) | Serious TRAE: Headache (Phase 2, 450 mg (N=48)) | Serious TRAE: Hemoptysis (Phase 2, 450 mg (N=48)) | Serious TRAE: Hydronephrosis (Phase 2, 450 mg (N=48)) | Serious TRAE: Hypoalbuminemia (Phase 2, 450 mg (N=48)) | Serious TRAE: Intestinal obstruction (Phase 2, 450 mg (N=48)) | Serious TRAE: Intra-abdominal fluid collection (Phase 2, 450 mg (N=48)) | Serious TRAE: Intracranial tumor hemorrhage (Phase 2, 450 mg (N=48)) | Serious TRAE: Liver injury (Phase 2, 450 mg (N=48)) | Serious TRAE: Lung adenocarcinoma (Phase 2, 450 mg (N=48)) | Serious TRAE: Malignant neoplasm progression (Phase 2, 450 mg (N=48)) | Serious TRAE: Multiple organ dysfunction syndrome (Phase 2, 450 mg (N=48)) | Serious TRAE: Nausea (Phase 2, 450 mg (N=48)) | Serious TRAE: Nephrolithiasis (Phase 2, 450 mg (N=48)) | Serious TRAE: Platelet counts decreased (Phase 2, 450 mg (N=48)) | Serious TRAE: Pleural effusion (Phase 2, 450 mg (N=48)) | Serious TRAE: Pneumonia (Phase 2, 450 mg (N=48)) | Serious TRAE: Pneumonitis (Phase 2, 450 mg (N=48)) | Serious TRAE: Prolonged QT interval (Phase 2, 450 mg (N=48)) | Serious TRAE: Pyrexia (Phase 2, 450 mg (N=48)) | Serious TRAE: Rectal hemorrhage (Phase 2, 450 mg (N=48)) | Serious TRAE: Respiratory failure (Phase 2, 450 mg (N=48)) | Serious TRAE: Seizure (Phase 2, 450 mg (N=48)) | Serious TRAE: Septic shock (Phase 2, 450 mg (N=48)) | Serious TRAE: Sudden cardiac arrest (Phase 2, 450 mg (N=48)) | Serious TRAE: Sudden death (Phase 2, 450 mg (N=48)) | Serious TRAE: Upper respiratory tract infection (Phase 2, 450 mg (N=48)) | Serious TRAE: Ventricular tachycardia (Phase 2, 450 mg (N=48)) | Serious TRAE: Vomiting (Phase 2, 450 mg (N=48)) | Serious TRAE: Weight loss (Phase 2, 450 mg (N=48))
1: Grade of cardiac TEAE: sinus bradycardia (Phase 2 study, patient 1 with Grade 3 QTc prolongation) | Grade of cardiac TEAE: Supraventricular extrasystoles [1] | Grade of cardiac TEAE: arhythmia [1] | Grade of cardiac TEAE: sinus bradycardia [1] | Grade of cardiac TEAE: Supraventricular extrasystoles [2] | Grade of cardiac TEAE: nodal tachycardia [2] | Grade of cardiac TEAE: T wave abnormal [3] | Grade of cardiac TEAE: nodal tachycardia [3] | Grade of cardiac TEAE: T wave abnormal [5] | Grade of cardiac TEAE: nodal tachycardia [5] | Grade of cardiac TEAE: nodal tachycardia (Phase 2 study, patient 9 with Grade 3 QTc prolongation)
